Results: ChEMBL document CHEMBL3091364, “Benzyloxybenzylammonium chlorides: Simple amine salts that display anticonvulsant activity” (Bioorg Med Chem, 2013)

Key:
[1] = molecular target: Sigma non-opioid intracellular receptor 1 (Homo sapiens) (UniProt Q99720); experiment: Inhibition of sigma-1 receptor (unknown origin) at 10 uM relative to control
[2] = molecular target: T1, 5-hydroxytryptamine receptor 2C (Homo sapiens) (UniProt P28335); experiment: Inhibition of 5-HT2C receptor (unknown origin) at 10 uM relative to control
T1 sequence (whole entry): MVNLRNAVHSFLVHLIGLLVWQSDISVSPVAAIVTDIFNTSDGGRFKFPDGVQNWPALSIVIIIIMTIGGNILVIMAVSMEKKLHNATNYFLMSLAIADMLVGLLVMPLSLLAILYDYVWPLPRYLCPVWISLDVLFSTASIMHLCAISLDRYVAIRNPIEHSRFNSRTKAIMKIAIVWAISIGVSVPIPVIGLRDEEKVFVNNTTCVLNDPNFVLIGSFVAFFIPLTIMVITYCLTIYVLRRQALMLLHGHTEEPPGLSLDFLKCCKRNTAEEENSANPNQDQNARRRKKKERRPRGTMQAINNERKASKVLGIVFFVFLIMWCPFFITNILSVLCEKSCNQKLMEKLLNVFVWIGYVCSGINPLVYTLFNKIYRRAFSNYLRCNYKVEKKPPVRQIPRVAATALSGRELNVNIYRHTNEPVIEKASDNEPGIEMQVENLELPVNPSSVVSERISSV

[3] = molecular target: T2, Alpha-1B adrenergic receptor (Homo sapiens) (UniProt P35368); experiment: Inhibition of adrenergic alpha-1B receptor (unknown origin) at 10 uM relative to control
T2 sequence (whole entry): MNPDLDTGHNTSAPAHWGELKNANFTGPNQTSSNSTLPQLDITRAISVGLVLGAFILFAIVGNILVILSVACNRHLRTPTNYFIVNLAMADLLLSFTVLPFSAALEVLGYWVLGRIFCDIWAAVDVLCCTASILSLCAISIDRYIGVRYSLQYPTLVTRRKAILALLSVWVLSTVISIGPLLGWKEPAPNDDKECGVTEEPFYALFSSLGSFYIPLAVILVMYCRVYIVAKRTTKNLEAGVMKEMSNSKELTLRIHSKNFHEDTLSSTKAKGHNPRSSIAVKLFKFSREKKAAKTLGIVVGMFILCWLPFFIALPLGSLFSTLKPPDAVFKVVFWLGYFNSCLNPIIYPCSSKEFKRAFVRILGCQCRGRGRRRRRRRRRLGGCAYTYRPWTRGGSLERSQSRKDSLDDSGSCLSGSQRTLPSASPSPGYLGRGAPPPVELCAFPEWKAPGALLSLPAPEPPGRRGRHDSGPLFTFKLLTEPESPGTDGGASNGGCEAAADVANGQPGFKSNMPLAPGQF

[4] = molecular target: T3, Alpha-2B adrenergic receptor (Homo sapiens) (UniProt P18089); experiment: Inhibition of adrenergic alpha-2B receptor (unknown origin) at 10 uM relative to control
T3 sequence (whole entry): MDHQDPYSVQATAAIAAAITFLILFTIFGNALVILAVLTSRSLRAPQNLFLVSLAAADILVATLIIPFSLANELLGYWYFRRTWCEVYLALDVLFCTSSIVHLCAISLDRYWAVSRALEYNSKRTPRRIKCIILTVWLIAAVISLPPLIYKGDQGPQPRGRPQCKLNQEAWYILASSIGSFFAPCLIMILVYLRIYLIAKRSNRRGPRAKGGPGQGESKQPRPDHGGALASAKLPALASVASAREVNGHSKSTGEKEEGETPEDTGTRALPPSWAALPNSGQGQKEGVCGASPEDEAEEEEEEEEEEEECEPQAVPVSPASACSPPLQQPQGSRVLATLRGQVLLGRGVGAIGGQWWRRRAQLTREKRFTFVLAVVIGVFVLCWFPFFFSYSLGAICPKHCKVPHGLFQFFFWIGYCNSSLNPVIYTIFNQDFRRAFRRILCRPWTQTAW

[5] = molecular target: Beta-3 adrenergic receptor (Homo sapiens) (UniProt P13945); experiment: Inhibition of adrenergic beta-3 receptor (unknown origin) at 10 uM relative to control
[6] = molecular target: T4, Muscarinic acetylcholine receptor M4 (Homo sapiens) (UniProt P08173); experiment: Inhibition of muscarinergic M4 receptor (unknown origin) at 10 uM relative to control
T4 sequence (whole entry): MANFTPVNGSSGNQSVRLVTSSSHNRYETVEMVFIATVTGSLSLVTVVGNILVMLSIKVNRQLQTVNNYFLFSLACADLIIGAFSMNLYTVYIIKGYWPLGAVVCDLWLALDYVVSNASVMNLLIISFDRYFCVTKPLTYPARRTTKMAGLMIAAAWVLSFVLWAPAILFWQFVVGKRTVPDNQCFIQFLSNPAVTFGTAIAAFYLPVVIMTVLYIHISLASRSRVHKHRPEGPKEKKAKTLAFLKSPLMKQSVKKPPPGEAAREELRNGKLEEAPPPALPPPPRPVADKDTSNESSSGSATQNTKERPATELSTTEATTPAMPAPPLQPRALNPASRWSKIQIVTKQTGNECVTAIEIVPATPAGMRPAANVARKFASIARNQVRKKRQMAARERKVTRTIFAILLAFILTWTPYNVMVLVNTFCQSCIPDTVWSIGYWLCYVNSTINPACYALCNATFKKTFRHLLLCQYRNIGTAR

[7] = molecular target: 5-hydroxytryptamine receptor 5A (Homo sapiens) (UniProt P47898); experiment: Inhibition of 5-HT5A receptor (unknown origin) at 10 uM relative to control
[8] = molecular target: 5-hydroxytryptamine receptor 2A (Homo sapiens) (UniProt P28223); experiment: Inhibition of 5-HT2A receptor (unknown origin) at 10 uM relative to control
[9] = molecular target: T5, Muscarinic acetylcholine receptor M1 (Homo sapiens) (UniProt P11229); experiment: Inhibition of muscarinergic M1 receptor (unknown origin) at 10 uM relative to control
T5 sequence (whole entry): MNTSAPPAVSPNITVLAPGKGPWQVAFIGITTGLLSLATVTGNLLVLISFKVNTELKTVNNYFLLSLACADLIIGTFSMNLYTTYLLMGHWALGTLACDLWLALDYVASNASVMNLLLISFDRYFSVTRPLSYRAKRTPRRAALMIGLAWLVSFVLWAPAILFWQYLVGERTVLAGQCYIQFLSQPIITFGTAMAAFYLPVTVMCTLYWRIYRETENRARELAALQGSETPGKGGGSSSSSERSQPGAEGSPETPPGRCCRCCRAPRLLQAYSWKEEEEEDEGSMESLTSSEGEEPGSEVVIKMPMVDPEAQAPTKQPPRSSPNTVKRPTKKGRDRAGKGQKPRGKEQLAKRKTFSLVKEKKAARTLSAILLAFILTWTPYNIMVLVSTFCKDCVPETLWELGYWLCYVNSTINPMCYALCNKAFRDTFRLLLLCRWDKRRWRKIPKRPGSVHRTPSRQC

Chain of 5-hydroxytryptamine receptor 5A (Homo sapiens) (P47898 whole entry): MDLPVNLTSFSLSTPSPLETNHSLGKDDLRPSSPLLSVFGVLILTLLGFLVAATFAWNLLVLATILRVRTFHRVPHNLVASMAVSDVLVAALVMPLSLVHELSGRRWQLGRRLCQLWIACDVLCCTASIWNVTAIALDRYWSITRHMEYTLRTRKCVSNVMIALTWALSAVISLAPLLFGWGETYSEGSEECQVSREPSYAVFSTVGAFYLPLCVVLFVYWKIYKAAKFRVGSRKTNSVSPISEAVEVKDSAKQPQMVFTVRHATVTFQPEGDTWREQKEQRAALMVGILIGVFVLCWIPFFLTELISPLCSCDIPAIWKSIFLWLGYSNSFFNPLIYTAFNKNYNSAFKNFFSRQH
Chain of Beta-3 adrenergic receptor (Homo sapiens) (P13945 whole entry, looked up): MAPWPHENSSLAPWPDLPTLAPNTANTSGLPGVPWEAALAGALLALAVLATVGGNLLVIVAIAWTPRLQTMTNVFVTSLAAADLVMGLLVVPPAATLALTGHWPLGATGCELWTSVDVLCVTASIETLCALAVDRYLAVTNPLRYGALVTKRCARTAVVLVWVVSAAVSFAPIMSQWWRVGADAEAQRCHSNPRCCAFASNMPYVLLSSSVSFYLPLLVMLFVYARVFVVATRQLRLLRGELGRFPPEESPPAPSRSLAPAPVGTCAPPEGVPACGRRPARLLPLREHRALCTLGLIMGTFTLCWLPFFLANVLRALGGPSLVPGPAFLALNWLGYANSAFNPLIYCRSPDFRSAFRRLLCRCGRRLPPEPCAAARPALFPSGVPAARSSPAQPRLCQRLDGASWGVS
Chain of Sigma non-opioid intracellular receptor 1 (Homo sapiens) (Q99720 whole entry): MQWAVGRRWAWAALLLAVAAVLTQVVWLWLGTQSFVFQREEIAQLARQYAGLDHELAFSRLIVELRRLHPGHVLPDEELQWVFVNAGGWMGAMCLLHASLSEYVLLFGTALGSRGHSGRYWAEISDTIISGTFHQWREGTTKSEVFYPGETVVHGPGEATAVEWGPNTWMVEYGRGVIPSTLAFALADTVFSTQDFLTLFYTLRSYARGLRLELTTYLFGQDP
Chain of 5-hydroxytryptamine receptor 2A (Homo sapiens) (P28223 whole entry): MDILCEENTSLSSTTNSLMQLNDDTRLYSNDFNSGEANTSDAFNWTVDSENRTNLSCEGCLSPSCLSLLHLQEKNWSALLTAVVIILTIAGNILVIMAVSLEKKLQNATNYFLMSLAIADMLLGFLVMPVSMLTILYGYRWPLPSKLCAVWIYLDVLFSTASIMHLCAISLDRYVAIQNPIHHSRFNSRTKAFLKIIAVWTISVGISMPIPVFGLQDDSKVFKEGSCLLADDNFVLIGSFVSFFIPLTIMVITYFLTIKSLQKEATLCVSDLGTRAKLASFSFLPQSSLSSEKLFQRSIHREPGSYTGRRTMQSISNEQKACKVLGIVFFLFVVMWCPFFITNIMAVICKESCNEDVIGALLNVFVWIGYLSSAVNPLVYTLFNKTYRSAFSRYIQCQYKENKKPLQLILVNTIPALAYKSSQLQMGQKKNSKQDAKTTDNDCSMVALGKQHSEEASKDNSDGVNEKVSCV

SMILES	inhibition [1] [%]	inhibition [2] [%]	inhibition [3] [%]	inhibition [4] [%]	inhibition [5] [%]	inhibition [6] [%]	inhibition [7] [%]	inhibition [8] [%]	inhibition [9] [%]
Cl.NCc1ccc(OCc2ccc(OC(F)(F)F)cc2)cc1	91.1	4.2	4.1	49.9	17.5	-4.7	-1.8	94.7	26.6
Cl.NCc1ccc(OCc2ccc(F)cc2)cc1	92.7	11.1	–	37	5	10.4	8.5	77.1	18.6
Cl.NCc1ccc(OCc2ccccc2OC(F)(F)F)cc1	92.9	39.7	-2.4	29.5	26.8	1.6	-0.1	73.8	67.3
Cl.NCc1ccc(OCc2ccccc2)cc1	97.7	38.2	0.5	27.3	11.3	–	1.2	76.8	28.9

Second part, the molecule after the results:

inhibition [1] [%]	inhibition [2] [%]	inhibition [3] [%]	inhibition [4] [%]	inhibition [5] [%]	inhibition [6] [%]	inhibition [7] [%]	inhibition [8] [%]	inhibition [9] [%]	SMILES
96.9	33	-3.8	44.3	13.6	4.3	0.2	88	–	Cl.NCc1ccc(OCc2cccc(OC(F)(F)F)c2)cc1
102	41.2	24.8	51.3	9.3	–	–	88.6	37.5	Cl.NCc1ccc(OCc2cccc(F)c2)cc1
90.6	13.2	–	51.6	-3.4	3.5	36.6	92.6	18.8	Cl.NCc1ccc(OCc2ccc(Cl)cc2)cc1
102	32.6	13.6	30.9	10.2	-9	-5.2	75.7	42	Cl.NCc1ccc(OCc2ccccc2F)cc1
89.4	-4.3	11.4	72	16.9	0.2	44.9	88.2	17.6	Cl.NCc1ccc(OCc2cccc(Cl)c2)cc1
